Laboratory results reported in patent US20160151270A1, “Peptide-Based Compositions and Methods of Use” (Geoffrey Brooks Consultants LLC, priority 2014, published 2016).
Residues, ends and D or L forms follow the SMILES beside them.

How the values were obtained:
[1] = safety testing of cosmetic grade cytomodulin as a topically administered ingredient
Source text: In particular, the heptapeptide TGF-β mimic, A-N-V-A-E-N-A (SEQ ID NO: 1), termed “cytomodulin,” has been examined and tested as an ingredient in compositions with the potential for improving the condition of skin upon application; a cosmetic grade cytomodulin was first synthesized according to U.S. Pat. No. 5,661,127 and subsequently tested to ensure both its efficacy and safety as a topically administered ingredient.

TGF-β = TGF-β like activity of cytomodulin analogs; conditions: compared with TGF-β and cytomodulin
Source text: As first introduced in the present inventor's U.S. Pat. No. 5,780,436, which is hereby incorporated by reference in its entirety, using cytomudulin as a guide, two initial cytomodulin analogs, L-I-A-E-A-K (SEQ ID NO: 2) and L-I-A-P-E-A (SEQ ID NO: 3) were designed, synthesized, and tested. In both peptides, -V-A-, was replaced by -I-A- and the first two N-terminal amino acid sequence of cytomodulin was replaced with leucine. In SEQ ID NO: 2, glutamic acid is at position i+3 since it is the first side-chain after the β-bend structure. In SEQ ID NO: 3, proline is at position i+3.
Analogs of SEQ ID NO: 2 and SEQ ID NO: 3 were made to further probe the sequence requirements for TGF-β like activity. To that end, the following peptides were made:
SEQ ID NOs 4-6, which are minor variants of SEQ ID NO: 2, mimicked the biological activities of TGF-β and cytomodulin. […] Alternatively, all peptides with the sequences represented by SEQ ID NOs: 9-16 mimicked at least one biological activity of TGF-β to some degree.

Molecule	toxicity [1]	TGF-β like activity (TGF-β)
CC(C)[C@H](NC(=O)[C@H](CC(N)=O)NC(=O)[C@H](C)N)C(=O)N[C@@H](C)C(=O)N[C@@H](CCC(=O)O)C(=O)N[C@@H](CC(N)=O)C(=O)N[C@@H](C)C(=O)O [cytomodulin, A-N-V-A-E-N-A] (H-ANVAENA-OH)	completely non-toxic	–
L-I-A-E-A-K (LIAEAK; TGF-beta mimic) [SEQ ID NO: 2, cytomodulin analog]	–	at least as much TGF-β like activity as cytomodulin
L-I-A-P-E-A (LIAPEA; TGF-beta mimic) [SEQ ID NO: 3, cytomodulin analog]	–	at least as much TGF-β like activity as cytomodulin
